Reference: ChEMBL document CHEMBL1201862, “PubChem BioAssay data set” (2004)
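Growth conditions: 96-well plates. Treatment: test compound, 48 hours, 5 concentrations. Analysis: linear interpolation between bracketing concentrations; unreached endpoints set to highest concentration. GI50 = concentration required for 50% inhibition of growth.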 The source made the active and inactive calls. Rule as the data show it: active = GI50 up to about 1.1 µM and inactive = higher. Where a SMILES comes first, the peptide text is derived from it. The star is where a group is joined. Cbz = O=C(OCc1ccccc1)*

Tests used:
Test in all cases: NCI tumour cell line growth inhibition, 48 h
HOP-62 = tested on: HOP-62
HT-29 = tested on: HT-29
SNB-19 = tested on: SNB-19
OVCAR-5 = tested on: OVCAR-5
TK-10 = tested on: TK-10
UO-31 = tested on: UO-31
OVCAR-8 = tested on: OVCAR-8
MDA-N = tested on: MDA-N
A549 = tested on: A549
K562 = tested on: K562
HCC 2998 = tested on: HCC 2998
M14 = tested on: M14
HL-60 = tested on: HL-60
MCF7 = tested on: MCF7
HCT-15 = tested on: HCT-15
SR = tested on: SR
NCI-H522 = tested on: NCI-H522
U-251 = tested on: U-251
NCI/ADR-RES = tested on: NCI/ADR-RES
MDA-MB-435 = tested on: MDA-MB-435

With `O=[N+]([O-])/C(C(Cl)=C(Cl)Cl)=C(/Sc1ccccc1)N1CCOCC1` the GI50 (HOP-62) was 17.5 µM (inactive), the GI50 (HT-29) was 6.15 µM (inactive) and the GI50 (SNB-19) was 6.75 µM (inactive). For the same compound, the GI50 (OVCAR-5) was 16.4 µM (inactive), the GI50 (TK-10) was 6.68 µM (inactive) and the GI50 (UO-31) was 4.67 µM (inactive). For the same compound, the GI50 (OVCAR-8) was 1.89 µM (inactive), the GI50 (MDA-N) was 3.65 µM (inactive) and the GI50 (A549) was 18.6 µM (inactive). For the same compound, the GI50 (K562) was 1.74 µM (inactive), the GI50 (HCC 2998) was 15.3 µM (inactive) and the GI50 (M14) was 3 µM (inactive). For the same compound, the GI50 (HL-60) was 1.99 µM (inactive), the GI50 (MCF7) was 2.57 µM (inactive) and the GI50 (HCT-15) was 3.45 µM. The GI50 (SR) was 2.12 µM (inactive), the GI50 (NCI-H522) was 4.31 µM (inactive) and the GI50 (U-251) was 10.5 µM (inactive). For the same compound, the GI50 (NCI/ADR-RES) was 6.28 µM (inactive) and the GI50 (MDA-MB-435) was 2.59 µM (inactive).
In the case of `CS(=O)(=O)OCCN(CCOS(C)(=O)=O)c1ccc(/C=N/c2ccc3oc(=O)ccc3c2)cc1`, the GI50 (HOP-62) is reported as 1.89 µM (inactive), the GI50 (HT-29) is reported as 5.66 µM (inactive) and the GI50 (SNB-19) is reported as 8.97 µM (inactive). The GI50 (OVCAR-5) was 3.24 µM (inactive), the GI50 (TK-10) was 2.45 µM (inactive) and the GI50 (UO-31) was 0.959 µM (active). The GI50 (OVCAR-8) was 6.97 µM (inactive), the GI50 (MDA-N) was 10.9 µM (inactive) and the GI50 (A549) was 3.47 µM (inactive). For the same compound, the GI50 (K562) was 24.6 µM (inactive), the GI50 (HCC 2998) was 1.61 µM (inactive) and the GI50 (M14) was 2.82 µM (inactive). The GI50 (HL-60) was 1.71 µM (inactive), the GI50 (MCF7) was 3.59 µM (inactive) and the GI50 (HCT-15) was 7.21 µM. The GI50 (SR) was 0.395 µM (active), the GI50 (NCI-H522) was 0.211 µM (active) and the GI50 (U-251) was 9.38 µM (inactive). The GI50 (NCI/ADR-RES) was 8.59 µM (inactive) and the GI50 (MDA-MB-435) was 11.1 µM (inactive).
In the case of `CC1=NC(C)(COC(=O)C2(C)NC(C)(CO)CO2)COC1=O` (stereo not drawn), the GI50 (HOP-62) is reported as > 100 µM (inactive), the GI50 (HT-29) is reported as > 100 µM (inactive) and the GI50 (SNB-19) is reported as > 100 µM (inactive). For the same compound, the GI50 (OVCAR-5) was > 100 µM (inactive), the GI50 (TK-10) was > 75 µM (inactive) and the GI50 (UO-31) was > 100 µM (inactive). The GI50 (OVCAR-8) was > 100 µM (inactive), the GI50 (MDA-N) was > 100 µM (inactive) and the GI50 (A549) was > 100 µM (inactive). For the same compound, the GI50 (K562) was > 100 µM (inactive), the GI50 (HCC 2998) was > 100 µM (inactive) and the GI50 (M14) was > 100 µM (inactive). For the same compound, the GI50 (HL-60) was > 100 µM (inactive), the GI50 (MCF7) was > 100 µM (inactive) and the GI50 (HCT-15) was greater than 100 µM. The GI50 (SR) was > 33 µM (inactive), the GI50 (NCI-H522) was > 100 µM (inactive) and the GI50 (U-251) was > 100 µM (inactive). For the same compound, the GI50 (NCI/ADR-RES) was > 100 µM (inactive) and the GI50 (MDA-MB-435) was > 100 µM (inactive).
With `CCOC(=O)CCC(NC(=O)C(Cc1ccccc1)NC(=O)OCc1ccccc1)C(=O)OCC` (stereo not drawn) (Cbz-Phe-Glu(OEt)-OEt; configuration not given here) the GI50 (HOP-62) was 18.5 µM (inactive), the GI50 (HT-29) was 20.2 µM (inactive) and the GI50 (SNB-19) was 19.7 µM (inactive). The GI50 (OVCAR-5) was 16.7 µM (inactive), the GI50 (TK-10) was 19.4 µM (inactive) and the GI50 (UO-31) was 17.4 µM (inactive). For the same compound, the GI50 (OVCAR-8) was 19.5 µM (inactive), the GI50 (MDA-N) was 17.2 µM (inactive) and the GI50 (A549) was 18.8 µM (inactive). For the same compound, the GI50 (K562) was 37.4 µM (inactive), the GI50 (HCC 2998) was 17.7 µM (inactive) and the GI50 (M14) was 15.9 µM (inactive). For the same compound, the GI50 (HL-60) was 20.1 µM (inactive), the GI50 (MCF7) was 19.2 µM (inactive) and the GI50 (HCT-15) was 20.1 µM. The GI50 (SR) was 27 µM (inactive), the GI50 (NCI-H522) was 15.7 µM (inactive) and the GI50 (U-251) was 14.9 µM (inactive). For the same compound, the GI50 (NCI/ADR-RES) was 18.2 µM (inactive) and the GI50 (MDA-MB-435) was 18.3 µM (inactive).
For `CN(C)CC1CCC/C(=C\c2ccc(OC(=O)/C=C/c3ccc(Cl)c(Cl)c3)cc2)C1=O` (stereo not drawn), the GI50 (HOP-62) was 2.75 µM (inactive), the GI50 (HT-29) was 2.11 µM (inactive) and the GI50 (SNB-19) was 10.5 µM (inactive). The GI50 (OVCAR-5) was 20.5 µM (inactive), the GI50 (TK-10) was 1.76 µM (inactive) and the GI50 (UO-31) was 2.77 µM (inactive). The GI50 (OVCAR-8) was 3.92 µM (inactive), the GI50 (MDA-N) was 3.37 µM (inactive) and the GI50 (A549) was 5.86 µM (inactive). For the same compound, the GI50 (K562) was 1.94 µM (inactive), the GI50 (HCC 2998) was 2.92 µM (inactive) and the GI50 (M14) was 5.68 µM (inactive). For the same compound, the GI50 (HL-60) was 0.796 µM (active), the GI50 (MCF7) was 0.857 µM (active) and the GI50 (HCT-15) was 2.45 µM. For the same compound, the GI50 (SR) was 1.21 µM (inactive), the GI50 (NCI-H522) was 3.37 µM (inactive) and the GI50 (U-251) was 6.17 µM (inactive). For the same compound, the GI50 (NCI/ADR-RES) was 2.92 µM (inactive) and the GI50 (MDA-MB-435) was 6.89 µM (inactive).
For `CSc1c(C#N)c(S)[nH]c(=O)c1C#N`, the GI50 (HT-29) was 25.4 µM (inactive), the GI50 (SNB-19) was 58.5 µM (inactive) and the GI50 (OVCAR-5) was > 100 µM (inactive). The GI50 (TK-10) was 23.2 µM (inactive), the GI50 (UO-31) was 18.7 µM (inactive) and the GI50 (OVCAR-8) was 47.2 µM (inactive). For the same compound, the GI50 (MDA-N) was 24.4 µM (inactive), the GI50 (A549) was 40.7 µM (inactive) and the GI50 (K562) was 18.1 µM (inactive). The GI50 (HCC 2998) was 36.2 µM (inactive), the GI50 (M14) was 24.5 µM (inactive) and the GI50 (HL-60) was 1.85 µM (inactive). The GI50 (MCF7) was 37.9 µM (inactive), the GI50 (HCT-15) was 44.4 µM and the GI50 (SR) was 51.2 µM (inactive). For the same compound, the GI50 (NCI-H522) was 8.34 µM (inactive), the GI50 (U-251) was > 100 µM (inactive) and the GI50 (NCI/ADR-RES) was 43.2 µM (inactive). For the same compound, the GI50 (MDA-MB-435) was 20.6 µM (inactive).
`COc1ccc(N[S+]([O-])c2ccc(Cl)cc2)cc1` (stereo not drawn) was tested, and the GI50 (HOP-62) was 61.7 µM (inactive), the GI50 (HT-29) was 37.7 µM (inactive) and the GI50 (SNB-19) was 93.1 µM (inactive). The GI50 (TK-10) was > 100 µM (inactive), the GI50 (UO-31) was 14.6 µM (inactive) and the GI50 (OVCAR-8) was 73.3 µM (inactive). For the same compound, the GI50 (MDA-N) was 28.3 µM (inactive), the GI50 (A549) was 23.5 µM (inactive) and the GI50 (K562) was 34.4 µM (inactive). For the same compound, the GI50 (HCC 2998) was 30.7 µM (inactive), the GI50 (M14) was 94 µM (inactive) and the GI50 (HL-60) was 38.5 µM (inactive). For the same compound, the GI50 (MCF7) was 32.6 µM (inactive), the GI50 (HCT-15) was 19.5 µM and the GI50 (SR) was 13.4 µM (inactive). The GI50 (NCI-H522) was 16.2 µM (inactive), the GI50 (U-251) was 11.8 µM (inactive) and the GI50 (NCI/ADR-RES) was 38.8 µM (inactive). For the same compound, the GI50 (MDA-MB-435) was 14.8 µM (inactive).
